Reference: patent US8329646B2, “Methods for the treatment of muscle loss” (Nestec S.A., priority 2006, dated 2012)
“Also recorded” adds a separate entry of the source.

Experiments:
murine C2C12 myotubes [1] = assay: Protein synthesis in C2C12 myotubes exposed to PIF or Angiotensin II; assay type: cell-based; conditions: for reduction of protein synthesis when incubated alone: FIG. 6, FIG. 8, b61, compared to the control; for suppression of the inhibition of protein synthesis by PIF and Ang II: in the presence of PIF or Ang II
Text: (§1) In order to determine the efficacy of branched chain amino acids (BCAAs) and other agents in reducing muscle catabolism, murine C2C12 myotubes were exposed to PIF or Angiotensin II in combination with amino acids (including BCAAs), insulin, insulin-like growth factor-1 (IGF-1), and a PKR inhibitor. PIF was extracted and purified from MAC16 tumors as described by Smith et al., Effect of a Cancer Cachectic Factor on Protein Synthesis/Degradation in Murine C2C12 Myoblasts: Modulation by Eicosapentaenoic Acid, Cancer Research, 59:5507-13 (1999), which is hereby incorporated by reference. Protein degradation was determined using the method described by Whitehouse et al., Increased Expression of the Ubiquitin-Proteasome Pathway in Murine Myotubes by Proteolysis-Inducing Factor (PIF) is Associated with Activation of the Transcription Factor NF-κB, British Journal of Cancer, 89:1116-22 (2003), which is also hereby incorporated by reference.
The measured proteolytic activity of PIF can be more specifically described as ubiquitin-like degradation activity.

murine C2C12 myotubes [2] = assay: Protein degradation in C2C12 myotubes exposed to PIF or Angiotensin II; assay type: cell-based
Experimental: as §1, with “PIF” for “In order to determine the efficacy of branched chain amino acids (BCAAs) and other agents in reducing muscle catabolism, murine C2C12 myotubes were exposed to PIF or Angiotensin II in combination with amino acids (including BCAAs), insulin, insulin-like growth factor-1 (IGF-1), and a PKR inhibitor. PIF”

eIF2-α = assay: Densitometric analysis of Western blots of phosphorylated eIF2-α in C2C12 myotubes; assay type: cell-based, murine; conditions: FIG. 2, FIG. 3, agent in combination with PIF, compared to PIF alone or to the control
Text: as §1
The control sample was incubated only in phosphate buffered saline (PBS).

## O=C1Nc2ccc3ncsc3c2/C1=C/c1cnc[nH]1 [PKR inhibitor]
Murine C2C12 myotubes [1]; FIG. 6, in combination with PIF
  protein synthesis levels, PKR inhibitor added to PIF: reversed protein synthesis levels back to about those of the control
Murine C2C12 myotubes [1]; FIG. 8, in combination with Angiotensin II
  protein synthesis levels, PKR inhibitor added to Angiotensin II: maintained protein synthesis levels at about that of the control
Murine C2C12 myotubes [2]; FIG. 5, in combination with PIF
  protein degradation levels, PKR inhibitor added to PIF: reversed protein degradation levels back to about those of the control
Murine C2C12 myotubes [2]; FIG. 7, in combination with Angiotensin II
  protein degradation levels, PKR inhibitor added to Angiotensin II: maintaining protein degradation levels at about that of the control

## N=C(N)NCCC[C@H](N)C(=O)O [arginine]
eIF2-α
  eIF2-α phosphorylation in the presence of PIF: greater than that of the control

## CC[C@H](C)[C@H](N)C(=O)O [isoleucine]
eIF2-α
  eIF2-α phosphorylation in the presence of PIF: reduced such phosphorylation to about the level of the control or below

## CC(C)C[C@H](N)C(=O)O [leucine]
eIF2-α
  eIF2-α phosphorylation in the presence of PIF: reduced such phosphorylation to about the level of the control or below

## CSCC[C@H](N)C(=O)O [methionine]
eIF2-α
  eIF2-α phosphorylation in the presence of PIF: greater than that of the control

## CC(C)[C@H](N)C(=O)O [valine]
eIF2-α
  eIF2-α phosphorylation in the presence of PIF: reduced such phosphorylation to about the level of the control or below

## Angiotensin II (DRVYIHPF; Angiotensin-2; UniProt P01019 25-32, looked up)
Murine C2C12 myotubes [1]
  reduction of protein synthesis when incubated alone: about 40%
Murine C2C12 myotubes [1]; listed as Ang II
  reduction of protein synthesis when incubated alone: 40%
Murine C2C12 myotubes [2]; FIG. 5, FIG. 7, compared to the control
  increase of protein degradation when incubated alone: about 51%

## IGF-1: insulin-like growth factor-1
Murine C2C12 myotubes [1]
  suppression of the inhibition of protein synthesis by PIF and Ang II: effective in suppressing the inhibition of protein synthesis
eIF2-α
  eIF2-α phosphorylation in the presence of PIF: significantly reduced
eIF2-α; listed as IGF1
  eIF2-α phosphorylation in the presence of PIF: completely attenuated

## insulin: an anabolic hormone
Murine C2C12 myotubes [1]
  suppression of the inhibition of protein synthesis by PIF and Ang II: effective in suppressing the inhibition of protein synthesis
eIF2-α
  eIF2-α phosphorylation in the presence of PIF: significantly reduced; also recorded: completely attenuated
